Measurements taken from patent US20240182407A1, “QUINOLINE COMPOUND SALT OR CRYSTAL FORM, PREPARATION METHOD THEREFOR, AND APPLICATION THEREOF” (Nanjing Zenshine Pharmaceuticals Co., Ltd., priority 2021, published 2024).

Columns and labels:
[1] = Dynamic water desorption analysis (DVS), hygroscopicity; type: physicochemical
Method: (§1) The instrument model used for DVS analysis was IGA Sorp (Hidentity Isochema). The sample was measured in a gradient mode, the humidity range for the test was from 0% to 90%, and the humidity increment of each gradient was 10%. The time to keep at each humidity gradient was from 30 min to 2 h.
It was determined by NMR and TGA that the sample had essentially no weight loss and no solvent residue before decomposition.
as §1, with “Sample 3 was taken as an example for dynamic water desorption analysis (DVS) characterization. The instrument” for “The instrument”

PI3Kδ (p110δ/p85a) = molecular target: T1, PI3Kδ (p110δ/p85a) (Homo sapiens, UniProt O00329); assay: ADP-Glo kinase inhibition, PI3Kδ; settings: read-out: IC50 PI3Kδ Biochemical
T1 construct: purchased Invitrogen PV6452
Method: In Example 7, the inhibitory effects of Sample 6 prepared in Example 6 above on kinases PI3Kα, PI3Kβ, PI3Kγ and PI3Kδ were tested.
The kinases used in the experiment were respectively purchased from: • PI3Kα (p110α/p85α), purchased from Invitrogen, under Cat. No. PV4788; • PI3Kβ (p110β), purchased from eurofins, under Cat. No. 14-603M; • PI3Kδ (p110δ/p85a), purchased from Invitrogen, under Cat. No. PV6452; and • PI3Kγ (p110γ), purchased from Invitrogen, under Cat. No. PR8641C. • Firstly, a 1× kinase buffer solution was prepared, which comprised: • 50 mM HEPES, pH 7.5 • 3 mM MgCl2 • 1 mM EGTA • 100 mM NaCl • 0.03% CHAPS • 2 mM DTT
On kinase PI3Kδ, the final detection concentration of the compound was 1 μM. 100× concentration was prepared, i.e., 100 μM. 90 μL of 100% DMSO was added to the second well in row B on a 96-well plate, 10 μL of a 1000 μM compound solution was then taken from the second well in row A, and 3-fold serial dilution was made to obtain a total of 10 concentrations.
50 μL of 100% DMSO was transferred to two empty wells as Max well and Min well, respectively.
50 nL of the compound was transferred into a 384-well plate using ECHO550. […]
Finally, the chemiluminescence values were read from Envision 2104 Multi-label Reader and subjected to curve fitting, and IC50 was calculated.

PI3Kα = molecular target: T2, PI3Kα (Mus musculus, UniProt P42337); assay: Akt phosphorylation in C2Cl2 cells stimulated by IGF-1 (AlphaLISA); settings: phosphorylation of Akt, C2C12 cells, read-out: IC50 PI3Kα Cell-based
T2 construct: host or cells: C2C12 cells
Method: In addition, taking Sample 6 as an example, the inhibitory effects thereof on PI3Kα, PI3Kβ, PI3Kγ and PI3Kδ in corresponding cells were determined. The activity of PI3Kα was detected by the phosphorylation level of Akt in C2Cl2 cells stimulated by IGF-1, the activity of PI3Kβ was detected by the phosphorylation level of Akt in PC-3 cells stimulated by LPA, the activity of PI3Kγ was detected by the phosphorylation level of Akt in Raw264.7 cells stimulated by c5α, and the activity of PI3Kδ was detected by the phosphorylation level of Akt in Raji cells stimulated by IgM. The phosphorylation level of Akt in cells was determined by means of AlphaLISA technique from PerkinElemer.
The C2C12 cells, PC-3 cells, Raw264.7 cells and Raji cells were all purchased from ATCC.

[2] = system: human-derived lymphoma DoHH-2 cell line; assay: Human-derived lymphoma DoHH-2 subcutaneous xenograft in CB17/SCID female immunodeficient mice; type: in vivo, mouse; settings: Day 24
Method: In Example 8, the anti-tumor effects of p-toluenesulfonate of Compound A at various dosages by intragastric administration on human-derived lymphoma DoHH-2 cell line subcutaneous transplantation CB17/SCID female immunodeficient mouse model were evaluated.
7-9-week-old CB17/SCID female immunodeficient mice were subcutaneously inoculated with […] DoHH-2 cells to establish a subcutaneous human lymphoma xenograft tumor model. When the average tumor volume in the mice reached 68 mm^3, the mice were randomly divided into groups and dosed on the day of grouping. The treatment method for each treatment group and vehicle control group was as follows:
p-toluenesulfonate of Compound A (Sample 6), given 100 mg/kg (p.o. QD) group, once daily, for 25 days (days 0-24);
p-toluenesulfonate of Compound A (Sample 6), given 30 mg/kg (p.o. QD) group, once daily, for 25 days (days 0-24);
positive treatment group (Duvelisib, purchased from Shanghai Lollane biological technology Co., Ltd.), given 50 mg/kg (p.o. BID) twice daily with an interval of 12 h, for 24 days; and
vehicle control group (5% DMSO/40% PEG400/55% water, by volume) (p.o. QD), given once daily, for 25 days (days 0-24).
There were 10 mice in each group, and all the mice were administered starting on the day of grouping (Day 0) and euthanized on Day 24 after grouping (Day 24). The efficacy was evaluated according to the tumor volume at the end point of the experiment.
The abbreviation p.o. stood for oral gavage, QD stood for once daily, and BID stood for twice daily.
The relative tumor inhibition rate (TGI) was calculated by the following formula: […]
T and C were respectively the average tumor volumes in the experimental group and the vehicle control group at a specific time point.

T2 sequence (P42337 whole entry): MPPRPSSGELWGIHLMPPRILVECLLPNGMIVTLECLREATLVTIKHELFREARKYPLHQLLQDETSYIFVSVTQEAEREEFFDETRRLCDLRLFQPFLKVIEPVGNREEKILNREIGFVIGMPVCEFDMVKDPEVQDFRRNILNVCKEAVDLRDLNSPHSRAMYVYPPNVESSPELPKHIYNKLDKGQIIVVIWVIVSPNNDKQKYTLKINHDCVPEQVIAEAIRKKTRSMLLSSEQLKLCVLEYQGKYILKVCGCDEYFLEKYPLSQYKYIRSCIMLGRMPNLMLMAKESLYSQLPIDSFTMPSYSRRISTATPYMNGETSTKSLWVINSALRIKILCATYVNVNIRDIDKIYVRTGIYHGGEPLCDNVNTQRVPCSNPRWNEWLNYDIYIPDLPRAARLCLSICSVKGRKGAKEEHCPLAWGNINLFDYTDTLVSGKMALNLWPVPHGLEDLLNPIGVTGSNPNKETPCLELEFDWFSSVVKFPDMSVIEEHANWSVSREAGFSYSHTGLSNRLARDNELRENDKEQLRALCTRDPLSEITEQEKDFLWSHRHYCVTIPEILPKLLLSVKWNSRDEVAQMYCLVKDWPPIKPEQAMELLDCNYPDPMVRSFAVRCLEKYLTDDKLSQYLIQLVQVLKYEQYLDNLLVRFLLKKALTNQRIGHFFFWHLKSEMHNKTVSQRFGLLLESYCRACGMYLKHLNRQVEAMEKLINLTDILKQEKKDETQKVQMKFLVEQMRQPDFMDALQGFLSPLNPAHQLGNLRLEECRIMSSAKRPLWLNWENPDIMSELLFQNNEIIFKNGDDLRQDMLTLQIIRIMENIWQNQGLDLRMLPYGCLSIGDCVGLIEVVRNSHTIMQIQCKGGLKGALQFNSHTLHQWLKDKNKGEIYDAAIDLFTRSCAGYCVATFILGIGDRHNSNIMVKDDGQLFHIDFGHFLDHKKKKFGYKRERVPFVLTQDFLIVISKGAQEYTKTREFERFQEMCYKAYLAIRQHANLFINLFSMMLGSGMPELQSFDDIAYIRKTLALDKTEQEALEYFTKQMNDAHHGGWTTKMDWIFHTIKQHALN
T2 sequence (P26450 whole entry partner): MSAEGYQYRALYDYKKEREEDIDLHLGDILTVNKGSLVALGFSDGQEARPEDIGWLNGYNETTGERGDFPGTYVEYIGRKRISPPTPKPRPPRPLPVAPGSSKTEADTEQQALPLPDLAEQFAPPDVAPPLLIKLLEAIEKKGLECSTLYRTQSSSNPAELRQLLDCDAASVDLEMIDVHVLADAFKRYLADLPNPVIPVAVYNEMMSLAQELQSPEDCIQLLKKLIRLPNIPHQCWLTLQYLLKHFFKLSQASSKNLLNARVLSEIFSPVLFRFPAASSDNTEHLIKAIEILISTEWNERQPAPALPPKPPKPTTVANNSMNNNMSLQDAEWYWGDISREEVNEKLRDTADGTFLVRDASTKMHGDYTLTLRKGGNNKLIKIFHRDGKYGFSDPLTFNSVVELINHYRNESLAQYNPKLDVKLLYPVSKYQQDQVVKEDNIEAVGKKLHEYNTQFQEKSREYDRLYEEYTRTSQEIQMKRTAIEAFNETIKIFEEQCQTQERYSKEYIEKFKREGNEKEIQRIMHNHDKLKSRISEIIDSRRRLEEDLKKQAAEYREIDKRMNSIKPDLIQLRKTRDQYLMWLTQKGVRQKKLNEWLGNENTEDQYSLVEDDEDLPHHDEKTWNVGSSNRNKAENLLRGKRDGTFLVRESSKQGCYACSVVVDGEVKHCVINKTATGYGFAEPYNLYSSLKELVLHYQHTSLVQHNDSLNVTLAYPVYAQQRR
T1 sequence (O00329 whole entry): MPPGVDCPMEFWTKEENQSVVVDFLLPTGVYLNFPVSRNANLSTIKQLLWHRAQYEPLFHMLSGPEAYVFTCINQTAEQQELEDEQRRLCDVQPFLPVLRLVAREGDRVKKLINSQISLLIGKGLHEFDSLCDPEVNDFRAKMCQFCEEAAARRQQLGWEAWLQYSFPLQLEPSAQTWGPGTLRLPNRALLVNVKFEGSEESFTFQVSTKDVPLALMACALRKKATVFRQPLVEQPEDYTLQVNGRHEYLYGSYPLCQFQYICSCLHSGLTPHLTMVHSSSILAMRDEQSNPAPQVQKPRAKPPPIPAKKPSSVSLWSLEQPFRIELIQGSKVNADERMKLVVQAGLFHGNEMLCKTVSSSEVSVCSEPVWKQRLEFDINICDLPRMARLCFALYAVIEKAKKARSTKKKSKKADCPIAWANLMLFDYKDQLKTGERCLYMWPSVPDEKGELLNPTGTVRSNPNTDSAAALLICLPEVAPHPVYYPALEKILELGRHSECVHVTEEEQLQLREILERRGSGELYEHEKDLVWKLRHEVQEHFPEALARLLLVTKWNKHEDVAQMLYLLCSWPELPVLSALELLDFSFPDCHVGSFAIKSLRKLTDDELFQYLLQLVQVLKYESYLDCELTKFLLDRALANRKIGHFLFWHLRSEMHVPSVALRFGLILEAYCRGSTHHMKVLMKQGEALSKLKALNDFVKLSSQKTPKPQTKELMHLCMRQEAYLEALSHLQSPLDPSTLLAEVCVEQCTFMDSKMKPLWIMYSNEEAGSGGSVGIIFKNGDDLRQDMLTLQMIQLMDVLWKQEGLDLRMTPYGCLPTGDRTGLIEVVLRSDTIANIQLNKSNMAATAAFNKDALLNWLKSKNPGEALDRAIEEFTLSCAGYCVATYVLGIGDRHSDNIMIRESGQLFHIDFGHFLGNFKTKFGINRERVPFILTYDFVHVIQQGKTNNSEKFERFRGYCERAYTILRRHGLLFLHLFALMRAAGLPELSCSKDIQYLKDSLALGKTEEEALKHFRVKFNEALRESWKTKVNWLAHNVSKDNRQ
T1 sequence (P27986 whole entry partner): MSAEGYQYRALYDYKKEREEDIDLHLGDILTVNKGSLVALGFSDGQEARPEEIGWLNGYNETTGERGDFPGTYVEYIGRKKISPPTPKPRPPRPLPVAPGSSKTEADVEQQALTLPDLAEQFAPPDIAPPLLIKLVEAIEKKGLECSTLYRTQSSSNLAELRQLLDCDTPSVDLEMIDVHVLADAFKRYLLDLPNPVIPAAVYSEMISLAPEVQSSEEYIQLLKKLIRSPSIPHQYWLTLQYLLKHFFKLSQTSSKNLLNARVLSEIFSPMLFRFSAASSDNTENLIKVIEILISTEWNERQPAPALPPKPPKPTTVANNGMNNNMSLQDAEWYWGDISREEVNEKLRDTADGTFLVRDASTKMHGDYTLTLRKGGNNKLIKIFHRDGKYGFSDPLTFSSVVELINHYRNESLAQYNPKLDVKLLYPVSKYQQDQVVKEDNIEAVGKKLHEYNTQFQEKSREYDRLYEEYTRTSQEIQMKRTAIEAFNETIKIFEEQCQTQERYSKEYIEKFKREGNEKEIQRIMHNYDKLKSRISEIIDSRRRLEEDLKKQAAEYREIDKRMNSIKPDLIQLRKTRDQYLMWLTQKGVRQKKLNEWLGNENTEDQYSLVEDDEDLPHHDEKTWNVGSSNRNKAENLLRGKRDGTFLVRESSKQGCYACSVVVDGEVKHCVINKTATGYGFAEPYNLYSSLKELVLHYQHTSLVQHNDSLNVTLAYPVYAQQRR

crystal form before and after humidity change (XRPD after DVS) ([1]; 0% to 90% RH): remained unchanged
moisture absorbed (DVS) ([1]; at 90% RH): 0.92%
IC50 (PI3Kδ (p110δ/p85a)): 0.49 nM
IC50 (PI3Kα): 3520 nM
SMILES: C[C@H](Nc1nc(N)nc(N)c1C#N)c1cc2ccc(F)cc2nc1-c1ccccn1 [p-toluenesulfonate of Compound A]
average tumor volume ([2]; 30 mg/kg p.o. QD): 984.45 mm^3
relative tumor inhibition rate (TGI) ([2]; 30 mg/kg p.o. QD): 54%
average tumor volume ([2]; 100 mg/kg p.o. QD): 549.05 mm^3
relative tumor inhibition rate (TGI) ([2]; 100 mg/kg p.o. QD): 75%
